Earlier results in paper PMC5036423 (CPT: Pharmacometrics & Systems Pharmacology, 2016).

Experiments:
intact PTH = conditions: first-in-human phase I study
[1] = 4 weeks of 5 mg TIW i.v. dosing, patients on HD

Compound: CC(=O)N[C@H](CSSC[C@H](N)C(=O)O)C(=O)N[C@H](C)C(=O)N[C@H](CCCNC(=N)N)C(=O)N[C@H](CCCNC(=N)N)C(=O)N[C@H](CCCNC(=N)N)C(=O)N[C@H](C)C(=O)N[C@H](CCCNC(=N)N)C(N)=O [etelcalcetide]
- Accumulation in Cmax [1]: approximately twofold
- Accumulation in area under the curve over 48 hours [1]: threefold
- Plasma exposure (Cmax and area under the curve over 48 hours) versus dose (TIW i.v. administration in patients on HD): increased proportionally with the dose
- Fraction of the drug eliminated by TIW HD (patients receiving TIW hemodialysis): ~50%
- Effect on intact PTH in healthy subjects (intact PTH): showed intact PTH lowering effect
